Laboratory results taken from the CheMixHub viscosity set.

Experiment: xn = mol fraction of the nth substance listed

CCCCCCCCCCCCCCCC + C1CCCCC1
viscosity [mPa·s]
Conditions | 298.15 K | 323.15 K
100 kPa, x2 = 0.2 | 2.654 | 1.632
100 kPa, x2 = 0.4 | 2.239 | 1.399
100 kPa, x2 = 0.6 | 1.79 | 1.154
100 kPa, x2 = 0.8 | 1.326 | 0.8848
101.33 kPa, x1 = 0.0129 | 0.9348 | –
101.33 kPa, x2 = 0.1809 | 2.717 | –
101.33 kPa, x2 = 0.3339 | 2.395 | –
101.33 kPa, x2 = 0.458 | 2.126 | –
101.33 kPa, x2 = 0.557 | 1.892 | –
101.33 kPa, x2 = 0.6415 | 1.709 | –
101.33 kPa, x2 = 0.7087 | 1.549 | –
101.33 kPa, x2 = 0.7738 | 1.39 | –
101.33 kPa, x2 = 0.828 | 1.27 | –
101.33 kPa, x2 = 0.8753 | 1.169 | –
101.33 kPa, x2 = 0.9197 | 1.08 | –
101.33 kPa, x2 = 0.9513 | 1.008 | –

ClC(Cl)Cl + C1CCCCC1
298.15 K, 101 kPa
Conditions | viscosity [mPa·s]
x1 = 0.2026 | 0.7795
x1 = 0.3543 | 0.6917
x1 = 0.4317 | 0.665
x1 = 0.5593 | 0.6217
x1 = 0.6464 | 0.6057
x1 = 0.7738 | 0.5875
x1 = 0.886 | 0.5657

ClC(Cl)Cl + C1COCCO1
Conditions | viscosity [mPa·s]
293.15 K, 101.33 kPa, x1 = 0.152 | 1.199
293.15 K, 101.33 kPa, x1 = 0.2726 | 1.129
293.15 K, 101.33 kPa, x1 = 0.3876 | 1.063
293.15 K, 101.33 kPa, x1 = 0.4413 | 1.035
293.15 K, 101.33 kPa, x1 = 0.516 | 0.992
293.15 K, 101.33 kPa, x1 = 0.6385 | 0.919
293.15 K, 101.33 kPa, x1 = 0.7409 | 0.819
293.15 K, 101.33 kPa, x1 = 0.8856 | 0.677
298.15 K, 101 kPa, x1 = 0.2 | 1.08
298.15 K, 101 kPa, x1 = 0.4 | 0.981
298.15 K, 101 kPa, x1 = 0.6 | 0.865
298.15 K, 101 kPa, x1 = 0.8 | 0.703
298.15 K, 101.33 kPa, x1 = 0.152 | 1.073
298.15 K, 101.33 kPa, x1 = 0.2726 | 1.018
298.15 K, 101.33 kPa, x1 = 0.3876 | 0.964
298.15 K, 101.33 kPa, x1 = 0.4413 | 0.952
298.15 K, 101.33 kPa, x1 = 0.516 | 0.905
298.15 K, 101.33 kPa, x1 = 0.6385 | 0.837
298.15 K, 101.33 kPa, x1 = 0.7409 | 0.774
298.15 K, 101.33 kPa, x1 = 0.8856 | 0.658
303.15 K, 101 kPa, x2 = 0.0995 | 0.59
303.15 K, 101 kPa, x2 = 0.1981 | 0.672
303.15 K, 101 kPa, x2 = 0.2998 | 0.75
303.15 K, 101 kPa, x2 = 0.3953 | 0.801
303.15 K, 101 kPa, x2 = 0.4992 | 0.857
303.15 K, 101 kPa, x2 = 0.5971 | 0.91
303.15 K, 101 kPa, x2 = 0.6993 | 0.956
303.15 K, 101 kPa, x2 = 0.8015 | 0.997
303.15 K, 101 kPa, x2 = 0.9021 | 1.044
303.15 K, 101.33 kPa, x1 = 0.2137 | 1.007
303.15 K, 101.33 kPa, x1 = 0.3447 | 0.949
303.15 K, 101.33 kPa, x1 = 0.4212 | 0.934
303.15 K, 101.33 kPa, x1 = 0.4813 | 0.886
303.15 K, 101.33 kPa, x1 = 0.5194 | 0.879
303.15 K, 101.33 kPa, x1 = 0.5698 | 0.844
303.15 K, 101.33 kPa, x1 = 0.7088 | 0.752

ClC(Cl)Cl + CC1COC(=O)O1
303.15 K, 101.3 kPa
Conditions | viscosity [mPa·s]
x2 = 0.0961 | 0.5649
x2 = 0.1929 | 0.6358
x2 = 0.2906 | 0.7195
x2 = 0.3894 | 0.8171
x2 = 0.4887 | 0.9421
x2 = 0.5894 | 1.098
x2 = 0.6906 | 1.287
x2 = 0.7925 | 1.52
x2 = 0.8962 | 1.808

O=C(O)CCl + CC(C)=O
viscosity [mPa·s], 101 kPa
Conditions | x1 = 0.1359 | x1 = 0.1855 | x1 = 0.2889 | x1 = 0.3789 | x1 = 0.4791 | x1 = 0.6971 | x1 = 0.8145
298.15 K | 0.4351 | 0.5339 | 0.7329 | 0.9727 | 1.345 | – | –
308.15 K | 0.394 | 0.4777 | 0.6435 | 0.8439 | 1.131 | 2.166 | –
323.15 K | 0.3409 | 0.4134 | 0.5393 | 0.6876 | 0.9042 | 1.6 | 2.123

O=CC(Cl)(Cl)Cl + CC(C)=O
viscosity [mPa·s], 101 kPa
Conditions | x1 = 0.0713 | x1 = 0.1371 | x1 = 0.2697 | x1 = 0.3708 | x1 = 0.4723 | x1 = 0.5664 | x1 = 0.6561 | x1 = 0.7731 | x1 = 0.8964
298.15 K | 0.4048 | 0.4541 | 0.5494 | 0.6015 | 0.6699 | 0.7342 | 0.7924 | 0.8894 | 0.9679
308.15 K | 0.3678 | 0.4111 | – | 0.5376 | 0.5949 | 0.6484 | 0.7021 | 0.7778 | 0.8506
323.15 K | 0.3231 | 0.3615 | 0.4176 | 0.4606 | 0.5118 | 0.554 | 0.6001 | 0.6568 | 0.7107
